Data taken from patent publication US7799799B2, “Indolizine derivatives, method for preparing same, and therapeutic compositions comprising same” (Sanofi-Aventis, priority 2005, dated 2010).
Converted amounts (≈) assume the structure as drawn. Where a name gives a salt, the structure may show the parent alone.

Legend:
[1] = at a pH of 3; cited from earlier work
[2] = Solubility test at pH=4 from phosphate buffer pH 6 0.1M, by HPLC; format: physicochemical; settings: for solubility at 5 min: aqueous buffer, thermodynamic from solid, phosphate buffer pH 6 0.1M, HPLC, first figure of the S/pH cell, the pH of the sample is the second; for pH (of the solubility sample): second figure of the S/pH cell, pH noted for the solubility sample
Experimental: The results for solubility, S, and pH are shown in the table below and are expressed in mg/ml.
A phosphate buffer, pH6, 0.1M, was prepared by adding 6.15 ml of 0.1M Na2HPO4 to 43.85 ml of 0.1M NaH2PO4. The solution was made up to 100 ml with filtered water using a Millipore system (trade mark).
Reference (Test Product in a Concentration in which the Latter is Soluble and which Acts as an Internal Reference)
About 0.2 mg (in a boat) was weighed out exactly and diluted in 1 ml of H2O/CH3CN: (50:50), i.e. 0.2 mg/ml, then the sample was subjected to ultrasound for 5 minutes.
About 4 mg (in a boat) was weighed out exactly and diluted in 400 μl (i.e. 10 mg/ml) of pH6 phosphate buffer (0.1M), then the sample was subjected to ultrasound for 5 minutes.
The pH was noted and if the pH was below 4, 1 μl of NaOH 1N was added (from 1 μl in 1 μl) until the pH was more than 4, then the pH was noted again. The solution (0.45 μm) was filtered then if necessary diluted with the phosphate buffer pH6. (If the product re-precipitated after diluting, the diluted sample was ignored, the mother solution was used and the solubility was determined at a wavelength other than λmax, to avoid saturating the signal.
The solubility of the compound was then determined by HPLC under the following conditions:
Instrument: Agilent 1100 chromatograph
Column temperature: 30° C. Flow rate: 0.8 ml/min Detection: λ=230 nm Injection volume: 5 μl

Structure (SMILES)	solubility in water S [1]	solubility at 5 min [2]	pH (of the solubility sample) [2]
CCCCc1oc2ccc(NS(C)(=O)=O)cc2c1C(=O)c1ccc(OCCCN(CCCC)CCCC)cc1 [Dronedarone]	247 µg/mL (≈ 444 µM)		
CCCCc1cc2ccc(CC)cn2c1C(=O)c1ccc(CCCN(CCC)CCC)cc1 [compound 44, (2-butyl-6-ethylindolizin-3-yl){4-[3-(dipropylamino)propyl]phenyl}methanone hydrochloride]		> 10000 µg/mL	6.05
CCCc1cc2ccccn2c1C(=O)c1ccc(CCCCN(CC)CC)cc1.Cl [compound 6, {4-[4-(diethylamino)butyl]phenyl}(2-propylindolizin-3-yl)methanone hydrochloride]		> 10000 µg/mL	5.79
CCCc1cc2ccccn2c1C(=O)c1ccc(CCCN(CC)CCC)cc1 [compound 29, (4-{3-[ethyl(propyl)amino]propyl}phenyl)(2-propylindolizin-3-yl)methanone hydrochloride]		> 10000 µg/mL	5.94
CCCCc1cc2ccccn2c1C(=O)c1ccc(CCCN(CCC)CCC)cc1 [compound 7, (2-butylindolizin-3-yl){4-[3-(dipropylamino)propyl]phenyl}methanone hydrochloride]		8570 µg/mL	5.65
CCCN(CC)CCCc1ccc(C(=O)c2c(C)cc3ccccn23)cc1 [compound 26, (4-{3-[ethyl(propyl)amino]propyl}phenyl)(2-methylindolizin-3-yl)methanone hydrochloride]		1490 µg/mL	7.14
CCCN(CCC)CCCCc1ccc(C(=O)c2c(CC)cc3ccccn23)cc1 [compound 11, {4-[4-(dipropylamino)butyl]phenyl}(2-ethylindolizin-3-yl)methanone hydrochloride]		> 10000 µg/mL	5.82
CCCN(CCC)CCCCc1ccc(C(=O)c2c(C)cc3ccccn23)cc1 [compound 15, {4-[4-(dipropylamino)butyl]phenyl}(2-methylindolizin-3-yl)methanone hydrochloride]		1560 µg/mL	6.33
CCCCc1cc2ccccn2c1C(=O)c1ccc(CCCN(CCC)CC2CC2)cc1 [compound 35, (2-butylindolizin-3-yl)(4-{3-[(cyclopropylmethyl)(propyl)amino]propyl}phenyl)methanone hydrochloride]		4400 µg/mL	4.75
CCCCc1cc2ccccn2c1C(=O)c1ccc(CCCCN(CC)CC)cc1.O=C(O)C(=O)O [compound 4, (2-butylindolizin-3-yl){4-[4-(diethylamino)butyl]phenyl}methanone oxalate]		> 10000 µg/mL	4.10
CCCCN(CCCC)CCCc1ccc(C(=O)c2c(CCC)cc3ccccn23)cc1 [compound 19, {4-[3-(dibutylamino)propyl]phenyl}(2-propylindolizin-3-yl)methanone hydrochloride]		4070 µg/mL	5.27
